According to ChEMBL document CHEMBL5215011, “Isolation and Structure Elucidation of Compounds from Sesamum alatum and Their Antiproliferative Activity against Multiple Myeloma Cells” (J Nat Prod, 2022):

What was measured:
Format in all cases: functional, cell-based
[1] = system: RPMI-8226; experiment: Antiproliferative activity against human RPMI-8226 cells assessed as inhibition of cell proliferation incubated for 72 hrs by XTT assay; conditions: RPMI-8226, 72 h
[2] = system: MM1.S; experiment: Antiproliferative activity against human MM1.S cells assessed as inhibition of cell proliferation incubated for 72 hrs by XTT assay
[3] = Antiproliferative activity against human MM1.R cells assessed as inhibition of cell proliferation incubated for 72 hrs by XTT assay; conditions: MM.1R

Row | Compound | IC50 [1] [µM] | IC50 [2] [µM] | IC50 [3] [µM]
1 | CC(C)=CC[C@@]12O[C@@H]1C(=O)c1c(O)ccc(O[C@@H]3O[C@H](CO)[C@@H](O)[C@H](O)[C@H]3O)c1C2=O | 9.5 | 4.8 | 3.6
2 | CC(C)=CC[C@@H]1C(=O)c2c(O)ccc(O)c2[C@@H]1O | 27.5 |  | 
3 | CC(C)=CC[C@@]12O[C@@H]1C(O)c1c(O)ccc(O)c1C2=O (stereo partly drawn) | 18.6 |  | 
4 | COC1=CC(=O)C=C(OC)C1=O [2,6-DIMETHOXYQUINONE] | 10.8 | 1.1 | 3
5 | CC(C)C[C@H](NC(=O)[C@H](Cc1ccccc1)NC(=O)c1cnccn1)B(O)O [BORTEZOMIB] | 0.0056 | 0.0032 | 0.0047

Now from value to compound, other results behind:

Row | IC50 [1] [µM] | IC50 [2] [µM] | Compound | IC50 [3] [µM]
6 | 0.6 | 0.7 | CC(C)=CC[C@@]12O[C@@H]1C(=O)c1c(O)ccc(O)c1C2=O | 0.9
7 | 12.9 |  | CC(C)=CCC1=C(Cl)C(=O)c2c(O)ccc(O)c2C1=O | 
8 | 9.6 | 14.7 | CC(C)(O)/C=C\C(O)=C1C(=O)c2c(O)ccc(O)c2C1=O | 6.1
